This data set has as its system Cyp1b1 mRNA. Description: Cyp1b1 gene expression in liver (real-time PCR). It counts as in vivo, female C57BL/6 mice. The following applies: female, C57BL/6, mouse, in vivo; single oral dose, day 3; read-out: Maximum induction of hepatic Cyp1b1 mRNA, of the maximal response of TCDD. As for the experimental part:
Animals. Eight-week-old female C57BL/6 mice (Harlan laboratories, Venray, the Netherlands) were randomly assigned to treatment groups (six animals per group) and allowed to acclimate for 1.5 weeks. The animals were housed in groups in standard cages and conditions (23 ± 2°C, 50–60% relative humidity, 12-hr dark/light cycle) with free access to food and water. Mice received a single dose of test compound by oral gavage at a dosing volume of 10 mL/kg body weight (BW). Mice treated with corn oil vehicle (10 mL/kg BW) served as controls. For each congener, five different doses were administered, ranging from 0.5–100 μg/kg BW (TCDD) to 5,000–500,000 µg/kg BW (PCB-153). Detailed information on doses is provided in Supplemental Material, Table S1 (http://dx.doi.org/10.1289/ehp.1206336). On day 3 after dosing, animals were euthanized by CO2/O2 asphyxiation, and blood was immediately collected from the abdominal aorta. The liver, thymus, spleen, and adipose tissue were removed, weighed (liver, thymus, and spleen), snap frozen, and stored at –80°C. All animal treatments were performed with permission of the Animal Ethical Committee (DEC Utrecht) and performed according to the [Law on Animal Experiments (1977)]. Animals were treated humanely and with regard for alleviation of suffering.
RNA isolation and quantitative real-time polymerase chain reaction (PCR). Total RNA was isolated from liver and PBLs using a QIAGEN RNeasy kit (QIAGEN). Purity and concentration of the isolated RNA was determined by measuring the absorbance ratio at 260/280 nm and 230/260 nm with a Nanodrop 2000 spectrophotometer (Thermo Scientific, Asheville, NC, USA). RNA was reverse transcribed to complementary DNA (cDNA) using the iScript cDNA synthesis Kit (Bio-Rad, Veenendaal, the Netherlands). Quantitative real-time PCR analyses were performed using the iQ Real-Time PCR Detection System with SYBR green (Bio-Rad). Amplification reactions were set up with […] containing 12.5 μL iQ SYBR Green Supermix (Bio-rad), 0.5 μL distilled H2O, 1 μL (10 μM) forward primer, 1 μL (10 μM) reverse primer, and 10 μL first strand cDNA (10X diluted). Primer sequences were as follows: Cyp1a1: forward-5´-GGTTAACCATGACCGGGAACT-3´ and reverse-5´-TGCCCAAACCAAAGAGAGTGA-3´ ([Schulz et al. 2012]); Cyp1a2: forward-5´-ACATTCCCAAGGAGCGCTGTATCT-3´ and reverse-5´-GTCGATGGCCGAGTTGTTATTGGT-3´ ([Flaveny et al. 2010]); Cyp1b1: forward-5´-GTGGCTGCTCATCCTCTTTACC-3´ and reverse-5´-CCCACAACCTGGTCCAACTC-3´ ([Berge et al. 2004]); β-actin: forward-5´-ATGCTCCCCGGGCTGTAT-3´ and reverse-5´-CATAGGAGTCCTTCTGACCCATTC-3´ ([Schulz et al. 2012]). All primers were run through the National Center for Biotechnology Information Primer-BLAST database (http://www.ncbi.nlm.nih.gov/tools/primer-blast/) to confirm specificity and validate for optimal annealing temperature (60°C for all primers) and efficiency. The efficiency of all primer pairs was 98–102% (tested at 60°C). The following program was used for denaturation and amplification of cDNA: 3 min at 95°C, followed by 40 cycles of 15 sec at 95°C and 45 sec at 60°C. Gene expression for each sample was expressed as threshold cycle (Ct), normalized to the reference gene β-actin (ΔCt). We calculated fold induction relative to the control group.
Data analysis. We obtained concentration–response curves using a sigmoidal dose–response nonlinear regression curve fit with variable slope (GraphPad Prism 6.01; GraphPad Software Inc., San Diego, CA, USA):
In this Hill equation, y is the dependent variable (EROD activity or fold induction of mRNA levels), x the independent variable (administered or systemic dose), E0 is the estimated background response level, Emax is the maximum response, b is the estimated median effective concentration (EC50), and n is the shaping parameter of the Hill curve.
Using the congener-specific BMR20TCDD concentration, REPs were calculated relatively to TCDD: […]
On the technique in general: Real-time PCR tracks product formation cycle by cycle.

In the case of `Clc1ccc(-c2cc(Cl)c(Cl)cc2Cl)cc1Cl` [PCB-118, 2,3´,4,4´,5-pentachlorobiphenyl], the Emax was under 0.3%.

The record behind these values is paper PMC3702004, “Comparison of Intake and Systemic Relative Effect Potencies of Dioxin-like Compounds in Female Mice after a Single Oral Dose” (Environmental Health Perspectives, 2013).
